Patent publication US20240092846A1, “ENGINEERED CYCLOTIDES WITH POTENT BROAD ANTIMICROBIAL ACTIVITY” (priority 2022, published 2024)
Converted amounts (≈) assume the structure as drawn. Read-outs that look alike come from different tables or passages of the source. Positions of bridges follow the written chain, without caps; N, C: chain ends.

Experiments:
P. aeruginosa = details: CAMHB; for MIC against P. aeruginosa: summary over the tested strains
Method: (§1) Broad-spectrum antimicrobial activity was evaluated using the broth microdilution assays against two different pathogens from four different species of bacteria (P. aeruginosa, S. aureus, K. pneumoniae, and E. coli) to determine if the cyclotides retained its potent activity. Broth microdilution assays were utilized to determine the minimum inhibitory concentrations (MICs) of our cyclotides according to the CLSI (formerly NCCLS) guidelines modifications as described below (40). The assay utilized cation-adjusted Mueller-Hinton broth (CAMHB) (Becton, Dickinson and Company, Franklin Lakes, NJ) which was prepared according to the manufacturer's instructions. Cyclotide solutions were prepared as 10× solutions in 0.01% acetic acid. Cyclotide were serially diluted two-fold at concentrations ranging from 25-0.05 μM that contained CAMHB and 0.04% bovine serum albumin (BSA) in polypropylene microtiter plates (Corning, Corning, NY). All bacteria were incubated overnight at 37° C. at 200 rpm in CAMHB and bacterial inoculum was adjusted with additional CAMHB to 0.5 McFarland standard through spectrophotometry at 600 nm. […] Study strains included a total of 20 P. aeruginosa and 20 methicillin resistant S. aureus strains from patients with cystic fibrosis at the Keck Medical Center of the University of Southern California. […] Colistin sulphate (Sigma-Aldrich, St Louis, MO) was used as a reference antibiotic for P. aeruginosa and E. coli, while vancomycin hydrochloride and meropenem trihydrate were used as reference antibiotics for S. aureus and K. pneumoniae.

E. coli = details: CAMHB
Method: as §1

K. pneumoniae = details: CAMHB
Method: as §1

S. aureus = details: CAMHB
Method: as §1

[1] = tested on: clinical isolates of methicillin-resistant S. aureus (MRSA); details: MRSA clinical isolates, n=20
Method: as §1

in vitro = assay: in vitro
Method: This was accomplished by incubating the corresponding peptides in human serum at 37° C. The quantitative analysis of undigested polypeptides was performed using liquid chromatography coupled with tandem mass spectrometry (LC-MS/MS). MCoTI-cyclotides present a very rigid structure,[24] which makes them extremely stable to proteolytic degradation.
Human serum stability. […]. Peptides were dissolved in water at 10 mg/mL concentration. 150 μg of peptides (15 μL) were mixed with 500 μL of human serum and incubated at 37° C. Samples (30 μL) were taken at various time intervals (0-120 h) and serum proteins were precipitated using 180 μL of acetonitrile containing 0.1% TFA. After centrifugation the pellet was dissolved in 8 M GdmCl and the supernatant was lyophilized and re-dissolved in 5% acetonitrile in water containing 0.1% formic acid. Both the supernatant and solubilized pellet fractions were analyzed by HPLC and LC-MS/MS. Each experiment was done in triplicate.

[2] = Maximum tolerated dose (MTD) toxicology study
Text: (§2) Colistin was used as a control antibiotic.[28] […] For this purpose, Applicant employed a P. aeruginosa bacterial peritonitis model.[29] This animal model is a well-established acute infection model and is commonly utilized as a common preclinical screening method for new antibiotics.[30] Peritonitis in Balb/c mice (n=10) was established by intraperitoneal injection of 1.5×10^7 colony forming units (CFU) per mouse of P. aeruginosa (Schroeter) Migula (ATCC 27853).
Maximum tolerated dose (MTD) toxicology Studies. The MTD was determined using two different endpoints: weight loss and clinical scoring. Clinical scores were evaluated through activity, appearance and body condition, similar to previously published literature (42). […] Any dose escalation that leads to moderate toxicity (clinical score of >2) was ceased and the dose prior served as the MTD. Mice were monitored every hour for 4 h after injection on the first day. After 24 h, mice were monitored twice daily for another two days until weight and clinical scores were returned to normal. Mice that met the criteria for moribund included a >20% weight loss and clinical score of >3 and were euthanized.

[3] = tested on: clinical isolates of P. aeruginosa; details: clinical isolates, n=20
Method: as §1

[4] = tested on: P. aeruginosa (Schroeter) Migula (ATCC 27853); assay: P. aeruginosa-induced peritonitis murine model; type: in vivo, Balb/c mice; set-up: reference not given here; details: single i.p. dose 15 mg/kg, 7 days
Text: as §2
P. aeruginosa-induced peritonitis murine model. Eight to 10-week-old Balb/c mice (Jackson Laboratory, Bar Harbor, ME) were housed five in a cage with standard chow and water ad libitum. To establish the model, 1.5×10^7 CFU of log-phase P. aeruginosa ATCC 27853 was injected intraperitoneally. […] Mice were monitored for 7 days and/or euthanized if any mice presented signs of moribundity.

[5] = summary over the tested strains
[6] = S. aureus BAA977, clindamycin resistant strain
[7] = S. aureus HH35, methicillin resistant strain
[8] = S. aureus USA300, methicillin resistant strain

Compound	MIC (P. aeruginosa; P. aeruginosa PA27853) [µM]	MIC against P. aeruginosa (P. aeruginosa) [µM]	MIC (E. coli; E. coli K12) [µM]	MIC (K. pneumoniae; K. pneumoniae K6) [µM]	MIC (S. aureus; S. aureus 25973) [µM]	MIC (S. aureus; [6]) [µM]	MIC (S. aureus; [7]) [µM]	MIC (E. coli; E. coli DS377) [µM]	MIC (K. pneumoniae; K. pneumoniae BAA1705) [µM]	MIC (S. aureus; [8]) [µM]	further results
cyclo(GGVCPKILQRCRRDSDCPGACICRGNGYCGSGSGGCLCYCRRRFCVCVCRR) (disulfide 4-21, 11-23, 17-29, 36-49, 38-47, 40-45 (inferred); ring closure inferred) [MCo-PG3]	25	25	>25	>25	>25	>25	>25				MIC against E. coli (E. coli; [5]): above 25 μM; MIC against K. pneumoniae (K. pneumoniae; [5]): above 25 μM; MIC against S. aureus (S. aureus; [5]): above 25 μM
CC[C@H](C)[C@@H]1NC(=O)[C@@H]2CSSC[C@@H]3NC(=O)[C@H](C(C)C)NC(=O)CNC(=O)CNC(=O)CNC(=O)[C@H](CCCNC(=N)N)NC(=O)[C@H](CCCNC(=N)N)NC(=O)CNC(=O)[C@H](C(C)C)NC(=O)[C@@H]4CSSC[C@H](NC(=O)[C@H](CC(C)C)NC(=O)[C@H](CCCNC(=N)N)NC(=O)CNC(=O)CNC(=O)CNC(=O)[C@H](CO)NC(=O)CNC(=O)[C@H](CO)NC(=O)CNC(=O)[C@@H]5CSSC[C@H](NC(=O)[C@H](CC(=O)O)NC(=O)[C@H](CO)NC(=O)[C@H](CC(=O)O)NC(=O)[C@H](CCCNC(=N)N)NC(=O)[C@H](CCCNC(=N)N)NC(=O)[C@H](CSSC[C@H](NC1=O)C(=O)N[C@@H](CCCNC(=N)N)C(=O)NCC(=O)N[C@@H](CC(N)=O)C(=O)NCC(=O)N[C@@H](Cc1ccc(O)cc1)C(=O)N5)NC(=O)[C@H](CCCNC(=N)N)NC(=O)[C@H](CCC(N)=O)NC(=O)[C@H](CC(C)C)NC(=O)[C@H]([C@@H](C)CC)NC(=O)[C@H](CCCCN)NC(=O)[C@@H]1CCCN1C3=O)C(=O)N1CCC[C@H]1C(=O)NCC(=O)N[C@@H](C)C(=O)N2)C(=O)N[C@@H](Cc1ccc(O)cc1)C(=O)N[C@H]1CSSC[C@H](NC(=O)[C@H](Cc2ccccc2)NC(=O)[C@H](CCCNC(=N)N)NC(=O)[C@H](CCCNC(=N)N)NC(=O)[C@H](CCCNC(=N)N)NC1=O)C(=O)N[C@@H](C(C)C)C(=O)N4 [MCo-PG4]	1.6 (≈ 8.99 µg/mL)	1.6 (≈ 8.99 µg/mL)	1.6 (≈ 8.99 µg/mL)	12.5 (≈ 70.2 µg/mL)	12.5 (≈ 70.2 µg/mL)	12.5 (≈ 70.2 µg/mL)	12.5 (≈ 70.2 µg/mL)	1.6 (≈ 8.99 µg/mL)	12.5 (≈ 70.2 µg/mL)	12.5 (≈ 70.2 µg/mL)	
CN[C@H](CC(C)C)C(=O)N[C@H]1C(=O)N[C@@H](CC(N)=O)C(=O)N[C@H]2C(=O)N[C@H]3C(=O)N[C@H](C(=O)N[C@H](C(=O)O)c4cc(O)cc(O)c4-c4cc3ccc4O)[C@H](O)c3ccc(c(Cl)c3)Oc3cc2cc(c3O[C@@H]2O[C@H](CO)[C@@H](O)[C@H](O)[C@H]2O[C@H]2C[C@](C)(N)[C@H](O)[C@H](C)O2)Oc2ccc(cc2Cl)[C@H]1O [Vancomycin, reference compound]											S. aureus MICrange [1]: 0.5 to 1.4 µM
cyclo[GGVCPKILQRCRRDSDCPGACICRGNGYCGSGSGRLCYCRRRFCVCVGR] (cyclo(GGVCPKILQRCRRDSDCPGACICRGNGYCGSGSGRLCYCRRRFCVCVGR); not fully specified; printed as cyclo[GGVCPKILQRCRRDSDCPGACICRGNGYCGSGSGRLCYCRRRFCVCVGR]; cysteine pairing not given here) [MCo-PG5]	3.1		1.6	6.2	12.5	12.5	12.5	1.6	6.2	12.5	MIC (P. aeruginosa; P. aeruginosa PAO1): 3.1 µM
CC(C)C[C@H](NC(=O)[C@H](CCCNC(=N)N)NC(=O)CNC(=O)CNC(=O)[C@@H](N)CCCNC(=N)N)C(=O)N[C@H]1CSSC[C@@H](C(=O)N[C@H](C(=O)NCC(=O)N[C@@H](CCCNC(=N)N)C(N)=O)C(C)C)NC(=O)[C@H](C(C)C)NC(=O)[C@@H]2CSSC[C@H](NC(=O)[C@H](Cc3ccc(O)cc3)NC1=O)C(=O)N[C@@H](CCCNC(=N)N)C(=O)N[C@@H](CCCNC(=N)N)C(=O)N[C@@H](CCCNC(=N)N)C(=O)N[C@@H](Cc1ccccc1)C(=O)N2 [PG-1, reference compound]											degradation in human serum within the first 24 h (in words) (in vitro; 37° C.): significant degradation; metabolised at 24 h, 0.29 mg/mL (in vitro; human, human serum): ~55%; half-life at 0.29 mg/mL (in vitro; human, human serum, t1/2 in human serum, 37° C., LC-MS/MS): 30 ± 3 h; MTD at 3 days ([2]; Balb/c, mouse, in vivo, ip): 5 mg/kg
Colistin											P. aeruginosa MIC50 [3]: ≤0.2 µM; P. aeruginosa MIC90 [3]: 0.4 µM; P. aeruginosa MICrange [3]: ≤0.2 to 0.4 µM; maximum tolerated dose (well tolerated intraperitoneal dose) ([2]; Balb/c mice, single i.p. dose, endpoints weight loss and clinical score): 15 mg/kg; hazard ratio [HR] (survival) ([4]; 12.3 μmol/kg, as printed in legend of FIG. 4): 24.8; hazard ratio [HR] (survival) [4]: 0.040
